According to patent publication US20250314636A1, “METHOD OF PREPARING AND EXPANDING A POPULATION OF IMMUNE CELLS FOR CANCER THERAPY, POTENCY ASSAY FOR TUMOR RECOGNITION, BIOLOGICAL VACCINE PREPARATION AND EPITOPETARGET FOR ANTIBODIES” (FUNDAÇÃO D. ANNA DE SOMMER CHAMPALIMAUD E DR. CARLOS MONTEZ …, priority 2022, published 2025):
Where two headings read alike, the source gives them in different places.

How the values were obtained:
TIL [1] = test system: TIL
Protocol: TIL were seeded at 10^4/well in medium with 10% human serum added 24 h later and reduced cytokine concentrations (IL-2 at 100 IU/mL, IL-15 at 100 IU/mL). Supernatants were tested for IFN-γ production with the Human IFN-γ ELISA basic kit (HRP) (Mabtech, 3420-1H-6) according to the manufacturer's instructions. The assay can also be performed using IL-7 at 100 IU/mL and 100 IU IL-15/mL).
MHC class I responses were blocked using mAb clone w6/32 (mouse IgG2a) at 10 μg/mL, anti-HLA-DR clone L243 (mouse IgG2a) at 10 μg/mL, anti-HLA-DP clone B7/21 (mouse IgG3) at 10 μg/mL, anti-CD1d clone CD1d42 (mouse IgG1) at 10 μg/mL. Isotype control antibodies included mouse IgG2a and mouse IgG1 at 10 μg/mL. MR1 responses were blocked using the mAb clone 26.5 (mouse IgG2a) at 10 μg/mL. All antibodies are commercially available.

TIL [2] = experiment: Peptide recognition assay in TIL (IFN-γ ELISA / IL-17 in supernatant, 7 days); assay type: cell-based, human; parameters: IFN-γ production, TIL: unit not given here; details: for IFN-γ production, TIL: 10e4 TIL/well co-cultured with the peptide for 7 days, supernatant tested; for Pancreatic TIL D1599 IFN-y / Pancreatic TILD1599 IL 17: Pancreatic TIL D1599; for IFN-γ production (in words): positive controls
Protocol: (§1) Peptides from tumor-associated antigens (TAAs), listed in Table 5 were placed at 1 ug/well in duplicates using anti-CD3 at 30 ng/mL as well as PHA at 5 μg/mL as positive controls.
(§2) The differences in TIL versus PBMCs can also be defined by peptide reactivity. 10e^4 TIL or 10e^4 PBMC/well were co-cultured with the peptides listed in Table 11 below for 7 days and the supernatants were tested for IFN-γ production.

PBMCs = experiment: Peptide recognition assay in PBMCs (IFN-γ in supernatant, 7 days); assay type: cell-based, human; details: for IFN-γ production, PBMCs: 10e4 PBMC/well co-cultured with the peptide for 7 days, supernatant tested; for PBMCs IFN-y: PBMCs harvested same day as skin lesion
Protocol: as §1, §2

PANC-1 = experiment: Cellular recognition assay: allogeneic tumor cell line PANC-1; assay type: cell-based, human; details: CD1d restricted IFN-γ production
Protocol: All antibodies are commercially available.
siRNA against MR1 was used to silence MR1 expression using Silencer Select Pre-designed siRNA (Ambion, Thermo Fisher)). A scramble siRNA was used as negative control (Ambion, Thermo Fisher). Briefly, target cells were seeded 24 h before transfection, both siRNAs were used at 10 μM with lipofectamine RNA iMAX diluted in OptiMEM, incubated for 5 minutes, and added on top of the cells. Cells were incubated for 48 h before being used on the respective assays.
Autologous tumor, confirmed by standard histology, was viably snap frozen and then thawed to be used as targets in recognition assays once TIL had been expanded. Small autologous tumor pieces (1 mm^3) from tumor areas that contained tumor cells were tested in duplicates. TIL were incubated with tumor pieces or allogeneic tumor cells in CellGenix GMP DC media supplemented with 10% serum in the presence of IL-2 (50 IU/mL) and IL-15 (10 IU/mL) for testing MAIT—cells. TCR αβ T-cells or TCR γδ cells were tested for autologous or allogeneic tumor recognition using 100 IU IL-2/mL and 100 IU IL-15/mL; or using 100 IU IL-7/mL combined with 100 IU IL-15/mL. […]

[3] = test system: Posterior skin lesion T-cells; experiment: Peptide recognition by T-cells expanded from skin lesions (IFN-γ, 7 days); assay type: cell-based, human; details: T-cells expanded from skin lesion of patient with solid cancer
Protocol: as §1

[4] = TIL that reacted against Human U11/U12 snRNP 35 kDa protein (81-90) tailored for HLA-B3501, + anti-ABC
[5] = TIL that reacted against Human U11/U12 snRNP 35 kDa protein (81-90) tailored for HLA-B3501, + anti-DR
[6] = TIL that reacted against Human U11/U12 snRNP 35 kDa protein (81-90) tailored for HLA-B3501, no blocking antibody
[7] = TIL that reacted against SARS-CoV-2 spike (212-220) tailored for HLA-B3501, + anti-ABC
[8] = TIL that reacted against SARS-CoV-2 spike (212-220) tailored for HLA-B3501, + anti-DR
[9] = TIL that reacted against SARS-CoV-2 spike (212-220) tailored for HLA-B3501, no blocking antibody

Compound | IFN-γ production, TIL (TIL [2]) | IFN-γ production, PBMCs (PBMCs) | also measured
LP(V)RDLVTGF |  |  | IFN-γ Production (TIL [1]; [4]): 1908.56; IL-17 Production (TIL [1]; [4]): 81.91; IFN-γ Production (TIL [1]; [5]): 1509.64; IL-17 Production (TIL [1]; [5]): 444.01; IFN-γ Production (TIL [1]; [6]): 2444.61; IL-17 Production (TIL [1]; [6]): 330.14; IFN-γ Production (TIL [1]; [7]): 879.62; IL-17 Production (TIL [1]; [7]): 0.00; IFN-γ Production (TIL [1]; [8]): 1289.42; IL-17 Production (TIL [1]; [8]): 420.07; IFN-γ Production (TIL [1]; [9]): 1230.50; IL-17 Production (TIL [1]; [9]): 372.84
LP(V)RDLPQGF |  |  | IFN-γ Production (TIL [1]; [4]): 2062.87; IL-17 Production (TIL [1]; [4]): 12.68; IFN-γ Production (TIL [1]; [5]): 1974.19; IL-17 Production (TIL [1]; [5]): 257.46; IFN-γ Production (TIL [1]; [6]): 2611.08; IL-17 Production (TIL [1]; [6]): 238.70; IFN-γ Production (TIL [1]; [7]): 138.58; IL-17 Production (TIL [1]; [7]): 0.00; IFN-γ Production (TIL [1]; [8]): 1057.65; IL-17 Production (TIL [1]; [8]): 428.92; IFN-γ Production (TIL [1]; [9]): 1457.59; IL-17 Production (TIL [1]; [9]): 462.99
PVTSTSSASTGHATP | 0 | 0 | 
WAVRPQDLDTCDPRQ | 0 | 0 | 
LVVVGAGRVGKSALT | 0 | 0 | 
TPLPVTDNSSASTGD | 0 | 0 | 
TTPLPVTIPSSASSG | 0 | 0 | 
PVTSTSSVSTGHATP | 0 | 0 | 
TPLPVTDASSASTGH | 0 | 0 | 
PVTSLSSVSTGDTTP | 0 | 0 | 
LAFQPPISNHPAPEY | 0 | 0 | 
TLGEFLKLDRERAKN | 0 | 0 | 
ALACWGVRGSLLSEA | 0 | 0 | 
LVVVGAGAVGKSALT | 0 | 0 | 
YKLVVVGAGGVGKSALT | 0 | 0 | 
COc1cccc2c1C(=O)c1c(O)c3c(c(O)c1C2=O)C[C@@](O)(C(=O)CO)C[C@@H]3O[C@H]1C[C@H](N)[C@H](O)[C@H](C)O1 [doxorubicin] |  |  | PANC-1 recognition by γδ+ TIL after pretreatment of PANC-1 cells (PANC-1): not changed
YKLVVVGASGVGKSALT | 0 | 0 | 
PVTSPSSESTGHAIP | 0 | 0 | 
KLVVVGAGGVGKSALTI | 0 | 0 | 
LDILDTAGHEEYSAMRD | 0 | 0 | 
PVTSPSSASTGHAIP | 0 | 0 | 
YKLVVVGARGVGKSALT | 0 | 0 | 

Compound | IFN-γ production, TIL (TIL [2]) | IFN-γ production, PBMCs (PBMCs) | also measured
SVSTMDALRGLLPVL | 0 | 0 | 
phytohemagglutinin [PHA, reference compound] | 1336 | 71 | Pancreatic TIL D1599 IFN-y (TIL [2]): 417 pg/mL; Pancreatic TILD1599 IL 17 (TIL [2]): 4 pg/mL; IL-17 production (in words) (TIL [2]; positive control, TIL D1599): only limited amount of IL-17 production; IFN-γ production (in words) (TIL [2]; TIL D1599): Strong IFN-γ production; PBMCs IFN-y (PBMCs; first PBMCs column): 165.7 pg/ml/7 days; PBMCs IFN-y (PBMCs; second PBMCs column): 165.7 pg/ml/7 days; Posterior skin lesion T-cells IFN-y [3]: 901.0 pg/ml/7 days
Cc1oncc1C(=O)Nc1ccc(C(F)(F)F)cc1 [Leflunomide] |  |  | PANC-1 recognition by γδ+ TIL after pretreatment of PANC-1 cells (PANC-1): not changed
TPLPVTDTSSASTGD | 0 | 0 | 
OKT3: anti-CD3 directed antibody crosslinking the T-cell receptor, 30 ng/ml from Biolegend or Human Cell [reference compound] | 0 | 63 | Pancreatic TIL D1599 IFN-y (TIL [2]): 200 pg/mL; Pancreatic TILD1599 IL 17 (TIL [2]): 0 pg/mL; IFN-γ production (in words) (TIL [2]; TIL D1599): Strong IFN-γ production; PBMCs IFN-y (PBMCs; first PBMCs column): 0.0 pg/ml/7 days; PBMCs IFN-y (PBMCs; second PBMCs column): 0.0 pg/ml/7 days; Posterior skin lesion T-cells IFN-y [3]: 27.0 pg/ml/7 days; IFN-γ Production (TIL [1]; [6]): 3333.24; IL-17 Production (TIL [1]; [6]): 417.70; IFN-γ Production (TIL [1]; [9]): 2540.06; IL-17 Production (TIL [1]; [9]): 305.99
KLVVVGAVGVGKSAL | 0 | 0 | 
HRLSEPPEDLDALPL | 0 | 0 | 
YKLVVVGAAGVGKSALT | 0 | 0 | 
LDILDTAGREEYSAMRD | 150 | 0 | 
LDILDTAGKEEYSAMRD | 0 | 0 | 
LVVVGAGSVGKSALT | 0 | 0 | 
DILDTAGLEEYSAMR | 0 | 0 | 
PMVLVGNNCDLPSRT | 0 | 0 | 
LVVVGAVGVGKSALT | 0 | 0 | 
YKLVVVGADGVGKSALT | 0 | 0 | 
GIPFIETSTKTRQRVED | 85 | 0 | 
MQEALSGTPCLLGPG | 0 | 0 | 
LVVVGAGCVGKSALT | 0 | 0 | 
LDVLYPKARLAFQNM | 0 | 0 | 
YEQLDVLKHKLDELY | 0 | 0 | 
VTDTSSASTGH | 0 | 0 | 
